{
  "source": "patent US20040048870A1",
  "about": "“Composition for the prevention and treatment of migraine headaches” (priority 2002, published 2004)",
  "key": {"[1]": {"tested_on": "migraine headaches", "assay": "patient history of earlier medication (headache questionnaire prior to institution of therapy)", "type": "in vivo, human", "conditions": "before therapy; for relief of acute pain by abortive agent: Example 1 patient; for success and side effects of earlier medication: Example 2 patient", "excerpt": "There were no accompanying autonomic symptoms. […] The patient was not exposed to xanthines."}, "[2]": {"tested_on": "headaches in patients with low serum levels of ionized magnesium", "conditions": "intravenous infusion of one gram of magnesium; cited from earlier work"}, "[3]": {"tested_on": "migraine", "conditions": "600 mg magnesium orally versus placebo; cited from earlier work"}, "[4]": {"tested_on": "migraine", "conditions": "400 mg oral riboflavin once a day; at four months; cited from earlier work"}},
  "data": [
    {"compound": "CC(=O)Nc1ccc(O)cc1", "note": "[acetaminophen]", "values": [
      {"measurement": "relief of acute pain by abortive agent", "setting": "[1]", "result": "some, but incomplete, relief"}
    ]},
    {"compound": "CNS(=O)(=O)Cc1ccc2[nH]cc(CCN(C)C)c2c1", "note": "[Imitrex]", "values": [
      {"measurement": "success and side effects of earlier medication", "setting": "[1]", "result": "varying success with varying side effects"}
    ]},
    {"compound": "CC(=O)Oc1ccccc1C(=O)O", "note": "[aspirin]", "values": [
      {"measurement": "relief of acute pain by abortive agent", "setting": "[1]", "result": "some, but incomplete, relief"}
    ]},
    {"compound": "CC(C)Cc1ccc(C(C)C(=O)O)cc1", "note": "(stereo not shown) [ibuprofen]", "values": [
      {"measurement": "relief of acute pain by abortive agent", "setting": "[1]", "result": "some, but incomplete, relief"}
    ]},
    {"compound": "[Mg+2]", "note": "[magnesium]", "values": [
      {"measurement": "headache relief", "setting": "[2]", "result": "relieved headaches"},
      {"measurement": "duration of the attacks", "setting": "[3]", "result": "decreased in the magnesium group, but not significantly"},
      {"measurement": "frequency of attacks", "setting": "[3]", "result": "significant reduction"},
      {"measurement": "intensity of the attacks", "setting": "[3]", "result": "decreased in the magnesium group, but not significantly"}
    ]},
    {"compound": "Cc1cc2nc3c(=O)[nH]c(=O)nc-3n(C[C@H](O)[C@H](O)[C@H](O)CO)c2cc1C", "note": "[riboflavin, Riboflavin]", "values": [
      {"measurement": "number of days the patients experienced migraine attacks", "setting": "[4]", "result": "statistically significant decrease"}
    ]},
    {"compound": "CCOC(=O)C1(c2ccccc2)CCN(C)CC1", "note": "[Demerol]", "values": [
      {"measurement": "success and side effects of earlier medication", "setting": "[1]", "result": "varying success with varying side effects"}
    ]}
  ]
}
